“Also recorded” adds a separate entry of the source.
Legend:
monkeys = experiment: Repeat-dose study in monkeys (reproductive organs); type: in vivo, monkey; conditions: monkeys, 75, 150, 300 and 600 mg/kg/day, all doses
Text: Based on pharmacologic actions of elagolix in humans a reversible effect on fertility may be expected in women.

rats = experiment: 2-year carcinogenicity study in rats; type: in vivo; conditions: rat
Text: The rat tumors were identified as being species-specific and of negligible relevance to humans. This conclusion is based on a follow-on thyroid and hepatic effects-related investigative study performed to document the possibility that thyroid and liver tumors may be specific to rat and occurred via induction of hepatic drug metabolizing enzymes at the high dose.

[1] = BCS classification of Compound A; type: physicochemical
Text: Release Profile Drugs administered via oral solid dosage forms should dissolve in vivo before systemic absorption can take place. There are number of factors which affect drug dissolution, including physicochemical properties of the drug substance. […] Incomplete dissolution may result in highly variable inter- and intra patient bioavailability. It has been determined in the present application that Compound A is a BCS class III drug. It also has been determined in the present application that the monosodium salt of Compound A has a tendency to form a gel, particularly when present at an amount greater than about 10% by weight in the absence of an appropriate anti-gelling agent, when administered orally in a solid dosage form. Thus, it is desirable to provide oral solid dosage forms that facilitate drug dissolution.

pKa of elagolix = type: physicochemical
[2] = Compound A solubility experiment in water at 37° C. (gel formation); type: physicochemical
Description: The dotted line in FIG. 2 is the theoretical concentration based on the weights of the solids added and the volume of water. […] Deviation of the concentrations from the theoretical line is due to the volume expansion upon dissolution of large amount of solutes. Beyond that, the concentrations deviate from the theoretical line, but the solution is still clear and no visible gelling was observed. When more than 500 mg of Compound A solid was added, visible gelling was observed, therefore, concentrations were not determined.

[3] = target: T1, organic anion transporting polypeptide (OATP)1B1 (Homo sapiens, UniProt Q9Y6L6); experiment: Elagolix as substrate of OATP1B1
T1 sequence (Q9Y6L6 1-691): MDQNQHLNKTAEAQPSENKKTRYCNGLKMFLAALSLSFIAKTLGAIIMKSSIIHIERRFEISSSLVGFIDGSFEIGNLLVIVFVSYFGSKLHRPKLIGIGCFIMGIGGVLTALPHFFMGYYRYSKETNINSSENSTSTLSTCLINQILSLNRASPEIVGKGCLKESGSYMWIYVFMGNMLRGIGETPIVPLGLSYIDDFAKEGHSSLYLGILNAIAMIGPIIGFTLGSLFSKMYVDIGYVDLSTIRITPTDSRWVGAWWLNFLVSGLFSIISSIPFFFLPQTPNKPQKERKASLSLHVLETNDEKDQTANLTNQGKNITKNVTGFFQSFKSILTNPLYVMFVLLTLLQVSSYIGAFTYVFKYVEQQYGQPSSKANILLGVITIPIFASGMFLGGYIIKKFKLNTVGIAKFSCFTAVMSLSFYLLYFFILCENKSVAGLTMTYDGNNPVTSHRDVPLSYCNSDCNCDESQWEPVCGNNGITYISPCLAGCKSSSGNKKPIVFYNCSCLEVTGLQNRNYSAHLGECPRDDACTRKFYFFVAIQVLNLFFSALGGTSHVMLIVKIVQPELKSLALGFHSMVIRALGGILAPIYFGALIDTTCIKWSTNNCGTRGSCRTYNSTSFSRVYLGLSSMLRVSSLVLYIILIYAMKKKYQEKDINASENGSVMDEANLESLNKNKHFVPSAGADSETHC
Text: Elagolix is a substrate of CYP3A, P-gp, and organic anion transporting polypeptide (OATP)1B1. Clinically meaningful interactions are not expected when elagolix is co-administered with drugs that inhibit CYP3A or P-gp.

[4] = system: CYP3A, CYP2D6, CYP2C8, uridine glucuronosyltransferases (UGTs); experiment: Metabolism pathways of elagolix; type: in vitro ADME, human
[5] = system: women with moderate to severe endometriosis-related pain; experiment: PROMIS Fatigue SF-6a T-score in Phase III endometriosis study; type: in vivo, human
Description: A Phase III study was conducted to assess the effects of elagolix for clinically meaningful reductions in pain and other symptoms. Data provided examined the impact of elagolix on fatigue in women with moderate to severe endometriosis-related pain. […] Fatigue was assessed using the Patient Reported Outcome Measurement Information System (PROMIS®), Fatigue Short Form (SF) 6a. Six items assessed a range of self-reported symptoms from mild, subjective feelings of tiredness to overwhelming, sustained sense of exhaustion that likely decreases one's ability to execute daily activities and function normally. The domain was divided into the experience of fatigue (frequency, duration and intensity) and impact of fatigue on physical, mental and social activities. All items assessed fatigue over the previous seven days. Responses to each question was filed on a 5-item Likert scale: 1—“Not at all”; 2—“A little bit”; 3—“Somewhat”; 4—“Quite a bit”; and 5—“Very much.” The questionnaire was administered at baseline and months 1, 3, and 6. Lower scores indicated less fatigue. Post-hoc, Fatigue SF-6a raw scores were converted to T-scores. The T-score rescales […] the raw score into a standardized score such that the general population has a mean of 50 and a standard deviation (SD) of 10. Analysis: […] ANCOVA controlled for treatment as main effect. Baseline Fatigue SF-6a T-score included as a covariate.

[6] = system: luteinizing hormone (LH) and follicle-stimulating hormone (FSH); experiment: Suppression of LH and FSH levels; type: in vivo, human; conditions: begins within hours of administration, reversible upon discontinuation
Text: (I) Elagolix is an orally administered, short-acting, selective, non-peptide small molecule GnRH receptor antagonist that blocks endogenous GnRH signaling by binding competitively to GnRH receptors in the pituitary gland. […] LH and FSH suppression begins within hours of administration and is readily reversible upon discontinuation of elagolix.

estradiol = experiment: Estradiol suppression in the Phase 3 studies in women with endometriosis; type: in vivo, human; conditions: 150 mg QD, partial suppression

## COc1cccc(-c2c(C)n(Cc3c(F)cccc3C(F)(F)F)c(=O)n(C[C@H](NCCCC(=O)O)c3ccccc3)c2=O)c1F [Compound A, 4-((R)-2-[5-(2-fluoro-3-methoxy-phenyl)-3-(2-fluoro-6-trifluoromethyl-benzyl)-4-methyl-2,6-dioxo-3,6-dihydro-2H-pyrimidin-1-yl]-1-phenyl-ethylamino)-butyric acid]
monkeys
  reproductive organ findings in repeat-dose study: reversible atrophy of reproductive organs (cervix, uterus and vagina)
rats; both, in vivo, 2 years
  margin of safety with respect to 200 mg BID in women: 13 fold
rats; high dose
  tumors, 2-year carcinogenicity study: increase in thyroid (male and female) and liver (males only) tumors
[1]
  BCS class: BCS class III
pKa of elagolix
  pKa: ~7.89
[2]; 12.2 mg added to 1.5 mL water
  Final pH: 9.66
  Measured Concentration: 7.45 mg/mL
  Observation: Clear solution
[2]; 28.7 mg added to 1.5 mL water
  Final pH: 9.96
  Measured Concentration: 17.3 mg/mL
  Observation: Clear solution
[2]; 49.8 mg added to 1.5 mL water
  Final pH: 10.10
  Measured Concentration: 28.0 mg/mL
  Observation: Clear solution
[2]; 100.4 mg added to 1.5 mL water
  Final pH: 10.16
  Measured Concentration: 60.8 mg/mL
  Observation: Clear solution
[2]; 202.5 mg added to 1.5 mL water
  Final pH: 10.18
  Measured Concentration: 111 mg/mL
  Observation: Clear solution
[2]; 295.6 mg added to 1.5 mL water
  Final pH: 10.20
  Measured Concentration: 149 mg/mL
  Observation: Clear solution
[2]; 503.2 mg added to 1.5 mL water
  Final pH: 10.17
  Measured Concentration: 170 mg/mL
  Observation: Clear solution
[2]; 700.9 mg added to 1.5 mL water
  Observation: Gel formation
[2]; 990.0 mg added to 1.5 mL water
  Observation: Gel formation
[3]
  substrate of organic anion transporting polypeptide (OATP)1B1: substrate
[4]
  Metabolism (major pathway): CYP3A (major)
[4]; listed as Elagolix
  Metabolism, minor pathways: Minor pathways include: CYP2D6,; also recorded: CYP2C8, and uridine; also recorded: glucuronosyltransferases (UGTs)
[5]; 200 mg, Month 1, vs placebo
  PROMIS Fatigue SF-6a T-Score: statistically significant reduction in fatigue
[5]; both doses (150 mg QD, 200 mg BID), Months 3 and 6, vs placebo
  PROMIS Fatigue SF-6a T-Score: Statistically significant reductions relative to placebo
[6]
  LH and FSH levels: dose-dependent suppression
estradiol
  suppression of estradiol to: approximately 50 pg/mL

Source: patent US12102637B2, “Pharmaceutical formulations for treating endometriosis, uterine fibroids, polycystic ovary syndrome or adenomyosis” (AbbVie Inc., priority 2017, dated 2024)
